Measured values taken from publication PMC9817970 (Cancers, 2022).

How the values were obtained:
Assay in all cases: Kinase panel profiling
Format in all cases: biochemical
Details in all cases: 10 μM ATP
ABL1 = biological target: T1, ABL1 (Homo sapiens, UniProt P00519)
T1 construct: purchased Reaction Biology Corp
Procedure: (§1) Kinase panel profiling was conducted by Reaction Biology Corp. (San Diego, CA, USA). A single dose (1.0 μM) of 6r was tested against 371 recombinant human kinases in the presence of 10 μM ATP.

ACK1 = biological target: T2, ACK1 (Homo sapiens, UniProt Q07912)
T2 construct: purchased Reaction Biology Corp
Procedure: as §1

BRAF = biological target: T3, BRAF (Homo sapiens, UniProt P15056)
T3 construct: purchased Reaction Biology Corp
Procedure: as §1

BRSK1 = biological target: T4, BRSK1 (Homo sapiens, UniProt Q8TDC3)
T4 construct: purchased Reaction Biology Corp
Procedure: as §1

CDK2/cyclin E2 = biological target: T5, CDK2/cyclin E2 (Homo sapiens, UniProt P24941)
T5 construct: purchased Reaction Biology Corp
Procedure: as §1

CDK5/P25 = biological target: T6, CDK5/P25 (Homo sapiens, UniProt Q00535)
T6 construct: purchased Reaction Biology Corp
Procedure: as §1

CLK4 = biological target: T7, CLK4 (Homo sapiens, UniProt Q9HAZ1)
T7 construct: purchased Reaction Biology Corp
Procedure: as §1

DAPK1 = biological target: T8, DAPK1 (Homo sapiens, UniProt P53355)
T8 construct: purchased Reaction Biology Corp
Procedure: as §1

DDR1 = biological target: T9, DDR1 (Homo sapiens, UniProt Q08345)
T9 construct: purchased Reaction Biology Corp
Procedure: as §1

DLK/MAP3K12 = biological target: T10, DLK/MAP3K12 (Homo sapiens, UniProt Q12852)
T10 construct: purchased Reaction Biology Corp
Procedure: as §1

ERK7/MAPK15 = biological target: T11, ERK7/MAPK15 (Homo sapiens, UniProt Q8TD08)
T11 construct: purchased Reaction Biology Corp
Procedure: as §1

GLK/MAP4K3 = biological target: T12, GLK/MAP4K3 (Homo sapiens, UniProt Q8IVH8)
T12 construct: purchased Reaction Biology Corp
Procedure: as §1

GRK3 = biological target: T13, GRK3 (Homo sapiens, UniProt P35626)
T13 construct: purchased Reaction Biology Corp
Procedure: as §1

GRK7 = biological target: T14, GRK7 (Homo sapiens, UniProt Q8WTQ7)
T14 construct: purchased Reaction Biology Corp
Procedure: as §1

GSK3a = biological target: T15, GSK3a (Homo sapiens, UniProt P49840)
T15 construct: purchased Reaction Biology Corp
Procedure: as §1

HGK/MAP4K4 = biological target: T16, HGK/MAP4K4 (Homo sapiens, UniProt O95819)
T16 construct: purchased Reaction Biology Corp
Procedure: as §1

Haspin = biological target: T17, Haspin (Homo sapiens, UniProt Q8TF76)
T17 construct: purchased Reaction Biology Corp
Procedure: as §1

LATS1 = biological target: T18, LATS1 (Homo sapiens, UniProt O95835)
T18 construct: purchased Reaction Biology Corp
Procedure: as §1

LATS2 = biological target: T19, LATS2 (Homo sapiens, UniProt Q9NRM7)
T19 construct: purchased Reaction Biology Corp
Procedure: as §1

LOK/STK10 = biological target: T20, LOK/STK10 (Homo sapiens, UniProt O94804)
T20 construct: purchased Reaction Biology Corp
Procedure: as §1

MAPKAPK2 = biological target: T21, MAPKAPK2 (Homo sapiens, UniProt P49137)
T21 construct: purchased Reaction Biology Corp
Procedure: as §1

MAPKAPK3 = biological target: T22, MAPKAPK3 (Homo sapiens, UniProt Q16644)
T22 construct: purchased Reaction Biology Corp
Procedure: as §1

MEKK3 = biological target: T23, MEKK3 (Homo sapiens, UniProt Q99759)
T23 construct: purchased Reaction Biology Corp
Procedure: as §1

MLCK/MYLK = biological target: T24, MLCK/MYLK (Homo sapiens, UniProt Q15746)
T24 construct: purchased Reaction Biology Corp
Procedure: as §1

MSK1/RPS6KA5 = biological target: T25, MSK1/RPS6KA5 (Homo sapiens, UniProt O75582)
T25 construct: purchased Reaction Biology Corp
Procedure: as §1

MYO3b = biological target: T26, MYO3b (Homo sapiens, UniProt Q8WXR4)
T26 construct: purchased Reaction Biology Corp
Procedure: as §1

NEK4 = biological target: T27, NEK4 (Homo sapiens, UniProt P51957)
T27 construct: purchased Reaction Biology Corp
Procedure: as §1

PAK4 = biological target: T28, PAK4 (Homo sapiens, UniProt O96013)
T28 construct: purchased Reaction Biology Corp
Procedure: as §1

PKCiota = biological target: T29, PKCiota (Homo sapiens, UniProt P41743)
T29 construct: purchased Reaction Biology Corp
Procedure: as §1

PKMYT1 = biological target: T30, PKMYT1 (Homo sapiens, UniProt Q99640)
T30 construct: purchased Reaction Biology Corp
Procedure: as §1

PKN1/PRK1 = biological target: T31, PKN1/PRK1 (Homo sapiens, UniProt Q16512)
T31 construct: purchased Reaction Biology Corp
Procedure: as §1

PLK4/SAK = biological target: T32, PLK4/SAK (Homo sapiens, UniProt O00444)
T32 construct: purchased Reaction Biology Corp
Procedure: as §1

RAF1 = biological target: T33, RAF1 (Homo sapiens, UniProt P04049)
T33 construct: purchased Reaction Biology Corp
Procedure: as §1

ROS/ROS1 = biological target: T34, ROS/ROS1 (Homo sapiens, UniProt P08922)
T34 construct: purchased Reaction Biology Corp
Procedure: as §1

SBK1 = biological target: T35, SBK1 (Homo sapiens, UniProt Q52WX2)
T35 construct: purchased Reaction Biology Corp
Procedure: as §1

SRPK1 = biological target: T36, SRPK1 (Homo sapiens, UniProt Q96SB4)
T36 construct: purchased Reaction Biology Corp
Procedure: as §1

STK32C/YANK3 = biological target: T37, STK32C/YANK3 (Homo sapiens, UniProt Q86UX6)
T37 construct: purchased Reaction Biology Corp
Procedure: as §1

STK39/STLK3 = biological target: T38, STK39/STLK3 (Homo sapiens, UniProt Q9UEW8)
T38 construct: purchased Reaction Biology Corp
Procedure: as §1

TAOK2/TAO1 = biological target: T39, TAOK2/TAO1 (Homo sapiens, UniProt Q9UL54)
T39 construct: purchased Reaction Biology Corp
Procedure: as §1

TBK1 = biological target: T40, TBK1 (Homo sapiens, UniProt Q9UHD2)
T40 construct: purchased Reaction Biology Corp
Procedure: as §1

TESK2 = biological target: T41, TESK2 (Homo sapiens, UniProt Q96S53)
T41 construct: purchased Reaction Biology Corp
Procedure: as §1

ZAP70 = biological target: T42, ZAP70 (Homo sapiens, UniProt P43403)
T42 construct: purchased Reaction Biology Corp
Procedure: as §1

T2 sequence (Q07912 whole entry): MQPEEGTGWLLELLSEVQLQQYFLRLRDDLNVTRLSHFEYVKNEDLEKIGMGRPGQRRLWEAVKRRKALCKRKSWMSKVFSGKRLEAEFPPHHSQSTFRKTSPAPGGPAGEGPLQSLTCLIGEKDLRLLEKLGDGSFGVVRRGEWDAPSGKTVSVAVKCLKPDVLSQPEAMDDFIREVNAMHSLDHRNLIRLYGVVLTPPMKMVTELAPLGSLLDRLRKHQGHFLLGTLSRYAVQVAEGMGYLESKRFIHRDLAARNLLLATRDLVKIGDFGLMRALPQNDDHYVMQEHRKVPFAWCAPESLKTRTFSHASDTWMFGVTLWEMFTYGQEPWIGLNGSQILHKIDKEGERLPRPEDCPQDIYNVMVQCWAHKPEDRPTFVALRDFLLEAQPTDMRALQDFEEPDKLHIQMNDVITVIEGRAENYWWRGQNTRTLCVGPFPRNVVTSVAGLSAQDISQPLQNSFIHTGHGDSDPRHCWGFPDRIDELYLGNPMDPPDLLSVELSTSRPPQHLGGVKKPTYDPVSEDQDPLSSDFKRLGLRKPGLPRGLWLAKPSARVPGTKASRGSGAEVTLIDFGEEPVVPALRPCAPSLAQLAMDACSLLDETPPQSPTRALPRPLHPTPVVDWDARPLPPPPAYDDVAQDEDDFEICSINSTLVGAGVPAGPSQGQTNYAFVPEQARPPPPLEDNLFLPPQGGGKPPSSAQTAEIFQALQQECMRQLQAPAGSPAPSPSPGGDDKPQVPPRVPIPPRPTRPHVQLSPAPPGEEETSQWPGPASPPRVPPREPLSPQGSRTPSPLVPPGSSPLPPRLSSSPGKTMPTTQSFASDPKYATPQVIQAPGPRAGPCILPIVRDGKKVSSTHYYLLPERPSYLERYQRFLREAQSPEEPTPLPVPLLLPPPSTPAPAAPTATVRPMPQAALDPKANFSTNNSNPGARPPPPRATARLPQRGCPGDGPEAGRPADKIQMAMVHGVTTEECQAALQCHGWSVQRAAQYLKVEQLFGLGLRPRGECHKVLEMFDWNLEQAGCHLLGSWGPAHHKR
T17 sequence (Q8TF76 whole entry): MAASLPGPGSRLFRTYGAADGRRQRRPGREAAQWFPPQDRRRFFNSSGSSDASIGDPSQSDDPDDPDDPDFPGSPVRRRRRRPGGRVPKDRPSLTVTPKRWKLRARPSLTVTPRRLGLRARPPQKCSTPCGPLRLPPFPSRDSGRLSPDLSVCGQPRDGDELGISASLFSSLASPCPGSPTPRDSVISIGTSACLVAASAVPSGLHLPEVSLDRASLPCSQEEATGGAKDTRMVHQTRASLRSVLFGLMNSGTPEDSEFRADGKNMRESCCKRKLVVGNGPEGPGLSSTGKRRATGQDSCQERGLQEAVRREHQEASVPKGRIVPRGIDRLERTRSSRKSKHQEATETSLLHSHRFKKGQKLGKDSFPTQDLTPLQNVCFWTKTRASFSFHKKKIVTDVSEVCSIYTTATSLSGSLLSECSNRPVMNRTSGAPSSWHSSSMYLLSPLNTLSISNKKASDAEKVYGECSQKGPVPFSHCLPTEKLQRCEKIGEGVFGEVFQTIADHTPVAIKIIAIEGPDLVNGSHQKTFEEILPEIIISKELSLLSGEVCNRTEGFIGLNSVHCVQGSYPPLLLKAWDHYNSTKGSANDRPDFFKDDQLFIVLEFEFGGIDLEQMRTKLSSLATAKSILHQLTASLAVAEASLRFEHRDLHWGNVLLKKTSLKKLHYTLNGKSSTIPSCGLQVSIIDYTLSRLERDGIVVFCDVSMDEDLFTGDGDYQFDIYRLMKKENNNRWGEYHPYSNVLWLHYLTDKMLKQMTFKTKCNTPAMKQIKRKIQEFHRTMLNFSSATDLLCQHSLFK
T35 sequence (Q52WX2 whole entry): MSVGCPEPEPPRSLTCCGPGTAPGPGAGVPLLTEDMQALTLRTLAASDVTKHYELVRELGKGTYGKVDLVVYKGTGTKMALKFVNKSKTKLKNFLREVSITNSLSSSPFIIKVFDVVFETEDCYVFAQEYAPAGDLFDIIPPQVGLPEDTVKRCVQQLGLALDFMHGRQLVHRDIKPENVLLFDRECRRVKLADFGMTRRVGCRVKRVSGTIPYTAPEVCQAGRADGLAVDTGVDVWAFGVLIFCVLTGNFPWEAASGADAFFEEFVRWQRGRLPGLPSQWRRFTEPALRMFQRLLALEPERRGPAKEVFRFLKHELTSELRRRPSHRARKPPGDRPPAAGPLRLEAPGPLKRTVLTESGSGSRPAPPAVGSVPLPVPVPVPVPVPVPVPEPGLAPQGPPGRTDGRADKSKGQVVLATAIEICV
T23 sequence (Q99759 whole entry): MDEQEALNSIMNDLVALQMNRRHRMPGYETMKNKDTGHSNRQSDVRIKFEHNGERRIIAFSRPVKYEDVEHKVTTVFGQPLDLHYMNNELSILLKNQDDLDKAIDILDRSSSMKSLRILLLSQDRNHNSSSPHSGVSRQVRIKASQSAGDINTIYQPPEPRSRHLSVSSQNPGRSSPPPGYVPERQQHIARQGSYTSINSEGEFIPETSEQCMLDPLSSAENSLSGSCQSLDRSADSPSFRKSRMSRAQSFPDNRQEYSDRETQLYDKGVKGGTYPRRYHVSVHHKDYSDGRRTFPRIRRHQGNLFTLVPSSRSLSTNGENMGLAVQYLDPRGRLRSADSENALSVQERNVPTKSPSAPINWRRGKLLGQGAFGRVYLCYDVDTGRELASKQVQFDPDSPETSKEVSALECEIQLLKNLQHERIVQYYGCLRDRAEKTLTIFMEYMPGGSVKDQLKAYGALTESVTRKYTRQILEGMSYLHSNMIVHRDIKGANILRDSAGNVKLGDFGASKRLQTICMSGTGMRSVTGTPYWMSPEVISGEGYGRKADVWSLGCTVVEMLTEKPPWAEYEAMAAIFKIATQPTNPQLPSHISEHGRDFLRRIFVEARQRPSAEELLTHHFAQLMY
T21 sequence (P49137 whole entry): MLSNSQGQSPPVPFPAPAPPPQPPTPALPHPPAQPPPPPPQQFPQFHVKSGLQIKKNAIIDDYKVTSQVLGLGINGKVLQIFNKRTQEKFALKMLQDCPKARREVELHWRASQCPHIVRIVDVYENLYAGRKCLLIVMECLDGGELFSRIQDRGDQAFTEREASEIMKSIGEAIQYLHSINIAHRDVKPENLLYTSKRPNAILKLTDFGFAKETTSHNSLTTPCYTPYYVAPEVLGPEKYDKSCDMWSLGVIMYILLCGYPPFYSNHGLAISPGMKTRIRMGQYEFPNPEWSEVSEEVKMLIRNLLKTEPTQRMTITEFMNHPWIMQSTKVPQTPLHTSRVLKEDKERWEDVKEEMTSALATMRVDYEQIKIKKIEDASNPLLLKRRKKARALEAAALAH
T33 sequence (P04049 whole entry): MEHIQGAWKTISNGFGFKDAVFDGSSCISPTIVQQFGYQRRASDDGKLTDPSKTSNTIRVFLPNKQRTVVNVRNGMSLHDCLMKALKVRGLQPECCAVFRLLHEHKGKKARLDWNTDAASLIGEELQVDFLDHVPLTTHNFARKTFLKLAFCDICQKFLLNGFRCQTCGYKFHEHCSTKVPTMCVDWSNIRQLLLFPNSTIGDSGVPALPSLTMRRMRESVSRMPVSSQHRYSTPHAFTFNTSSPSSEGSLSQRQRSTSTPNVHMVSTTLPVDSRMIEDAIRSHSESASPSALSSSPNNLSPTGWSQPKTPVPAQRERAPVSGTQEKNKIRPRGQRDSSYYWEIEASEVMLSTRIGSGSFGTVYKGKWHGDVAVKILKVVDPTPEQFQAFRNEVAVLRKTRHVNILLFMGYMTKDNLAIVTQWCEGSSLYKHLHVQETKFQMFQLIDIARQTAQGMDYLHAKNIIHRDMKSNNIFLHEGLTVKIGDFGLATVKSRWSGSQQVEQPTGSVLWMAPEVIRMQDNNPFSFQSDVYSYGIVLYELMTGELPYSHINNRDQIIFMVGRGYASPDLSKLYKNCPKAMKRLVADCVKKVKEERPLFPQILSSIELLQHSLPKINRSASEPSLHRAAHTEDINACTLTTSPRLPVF
T42 sequence (P43403 whole entry): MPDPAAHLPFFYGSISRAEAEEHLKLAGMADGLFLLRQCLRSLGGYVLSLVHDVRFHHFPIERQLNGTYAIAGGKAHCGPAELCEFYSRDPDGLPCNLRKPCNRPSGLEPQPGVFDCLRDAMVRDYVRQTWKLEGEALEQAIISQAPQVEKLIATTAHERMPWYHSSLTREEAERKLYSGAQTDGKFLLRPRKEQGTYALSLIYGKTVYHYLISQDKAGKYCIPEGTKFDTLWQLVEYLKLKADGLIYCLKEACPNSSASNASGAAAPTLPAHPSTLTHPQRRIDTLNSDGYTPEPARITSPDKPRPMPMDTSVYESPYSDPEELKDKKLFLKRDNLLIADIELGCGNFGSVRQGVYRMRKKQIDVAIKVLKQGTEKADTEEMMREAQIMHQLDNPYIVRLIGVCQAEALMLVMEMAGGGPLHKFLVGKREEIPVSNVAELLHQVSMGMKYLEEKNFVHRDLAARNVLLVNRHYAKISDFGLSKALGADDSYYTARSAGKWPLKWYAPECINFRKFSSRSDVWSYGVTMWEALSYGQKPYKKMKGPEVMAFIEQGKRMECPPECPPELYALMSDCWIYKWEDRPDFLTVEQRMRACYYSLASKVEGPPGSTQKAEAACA
T37 sequence (Q86UX6 whole entry): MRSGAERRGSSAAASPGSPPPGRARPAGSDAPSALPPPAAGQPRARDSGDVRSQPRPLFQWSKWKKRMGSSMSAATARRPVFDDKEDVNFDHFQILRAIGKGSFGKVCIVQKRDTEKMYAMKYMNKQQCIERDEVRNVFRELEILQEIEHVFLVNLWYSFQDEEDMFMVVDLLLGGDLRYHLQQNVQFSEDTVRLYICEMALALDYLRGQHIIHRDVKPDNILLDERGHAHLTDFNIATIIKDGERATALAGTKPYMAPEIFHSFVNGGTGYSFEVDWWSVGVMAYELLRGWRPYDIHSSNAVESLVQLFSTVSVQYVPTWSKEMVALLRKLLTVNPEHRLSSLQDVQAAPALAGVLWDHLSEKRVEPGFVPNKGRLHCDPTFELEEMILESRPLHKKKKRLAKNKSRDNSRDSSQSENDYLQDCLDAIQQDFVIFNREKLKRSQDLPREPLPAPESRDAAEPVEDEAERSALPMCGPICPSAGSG

## Cc1ccc(NC(=O)c2ccc(CN3CCN(C)CC3)c(C(F)(F)F)c2)cc1-c1cnc2sc(N)nc2c1 [6r]
ABL1
  inhibition at 1 µM: 60.8%
ACK1
  inhibition at 1 µM: 39.9%
BRAF
  inhibition at 1 µM: 97.4%
BRSK1
  inhibition at 1 µM: 0%
CDK2/cyclin E2
  inhibition at 1 µM: 8.3%
CDK5/P25
  inhibition at 1 µM: 8.7%
CLK4
  inhibition at 1 µM: 7.7%
DAPK1
  inhibition at 1 µM: 10.1%
DDR1
  inhibition at 1 µM: 99.9%
DLK/MAP3K12
  inhibition at 1 µM: 0%
ERK7/MAPK15
  inhibition at 1 µM: 4.2%
GLK/MAP4K3
  inhibition at 1 µM: 15%
GRK3
  inhibition at 1 µM: 0%
GRK7
  inhibition at 1 µM: 7.5%
GSK3a
  inhibition at 1 µM: 7.4%
HGK/MAP4K4
  inhibition at 1 µM: 0%
Haspin
  inhibition at 1 µM: 12.1%
LATS1
  inhibition at 1 µM: 1.5%
LATS2
  inhibition at 1 µM: 2.1%
LOK/STK10
  inhibition at 1 µM: 14%
MAPKAPK2
  inhibition at 1 µM: 12.5%
MAPKAPK3
  inhibition at 1 µM: 10.7%
MEKK3
  inhibition at 1 µM: 4.9%
MLCK/MYLK
  inhibition at 1 µM: 11%
MSK1/RPS6KA5
  inhibition at 1 µM: 0%
MYO3b
  inhibition at 1 µM: 0%
NEK4
  inhibition at 1 µM: 25.6%
PAK4
  inhibition at 1 µM: 8.6%
PKCiota
  inhibition at 1 µM: 8.6%
PKMYT1
  inhibition at 1 µM: 10%
PKN1/PRK1
  inhibition at 1 µM: 15.1%
PLK4/SAK
  inhibition at 1 µM: 10.4%
RAF1
  inhibition at 1 µM: 99.9%
ROS/ROS1
  inhibition at 1 µM: 6.6%
SBK1
  inhibition at 1 µM: 6.7%
SRPK1
  inhibition at 1 µM: 46.3%
STK32C/YANK3
  inhibition at 1 µM: 0.6%
STK39/STLK3
  inhibition at 1 µM: 19.2%
TAOK2/TAO1
  inhibition at 1 µM: 61.9%
TBK1
  inhibition at 1 µM: 5%
TESK2
  inhibition at 1 µM: 15.1%
ZAP70
  inhibition at 1 µM: 8.7%
